Results from US9193984B2, “Method for detecting interactions between two and more biological macromolecules” (Korea Basic Science Institute, priority 2008, dated 2015).

Target: T1, first construct (TMD-mRFP) in CHO-k1 cells (Homo sapiens, UniProt Q05655, K378R/Y313F)
T1 construct: expressed in transfected cells; host or cells: CHO-k1
Experiment: Translocation of first construct (TMD-mRFP) toward the cell membrane depending on PMA concentration
Format: cell-based, Cricetulus griseus
Description: In order to optimize the translocation characteristic of the translocation module, the first construct vector (pTMD-mRFP-C3) shown in FIG. 5 was used to determine the optimum concentration of PMA (phorbol-12-myristate-13-acetate), which was used as an external stimulation. Detailed experimental procedures were the same as in FIG. 5.
A cover slip containing the cells in which the first construct and second construct vectors had been introduced was fixed to a perfusion chamber and mounted on the object stage of a confocal laser fluorescence microscope (Carl Zeiss LSM510). Images of the construct vectors were taken before and after external stimulation (treatment with 1 μM PMA).
Translocation efficiency of the first construct using the pTMD-mRFP-C3 vector depending on the concentration of external stimulant PMA was measured as follows. The expression vector of the first construct was transformed into CHO-k1 cells and overexpressed. After 18 hours of culturing, PMA was treated at 1, 5, 10, 20, 40, 50, 80 and 100 nM and 1 and 5 μM.

T1 sequence (Q05655 whole entry Y313F/K378R): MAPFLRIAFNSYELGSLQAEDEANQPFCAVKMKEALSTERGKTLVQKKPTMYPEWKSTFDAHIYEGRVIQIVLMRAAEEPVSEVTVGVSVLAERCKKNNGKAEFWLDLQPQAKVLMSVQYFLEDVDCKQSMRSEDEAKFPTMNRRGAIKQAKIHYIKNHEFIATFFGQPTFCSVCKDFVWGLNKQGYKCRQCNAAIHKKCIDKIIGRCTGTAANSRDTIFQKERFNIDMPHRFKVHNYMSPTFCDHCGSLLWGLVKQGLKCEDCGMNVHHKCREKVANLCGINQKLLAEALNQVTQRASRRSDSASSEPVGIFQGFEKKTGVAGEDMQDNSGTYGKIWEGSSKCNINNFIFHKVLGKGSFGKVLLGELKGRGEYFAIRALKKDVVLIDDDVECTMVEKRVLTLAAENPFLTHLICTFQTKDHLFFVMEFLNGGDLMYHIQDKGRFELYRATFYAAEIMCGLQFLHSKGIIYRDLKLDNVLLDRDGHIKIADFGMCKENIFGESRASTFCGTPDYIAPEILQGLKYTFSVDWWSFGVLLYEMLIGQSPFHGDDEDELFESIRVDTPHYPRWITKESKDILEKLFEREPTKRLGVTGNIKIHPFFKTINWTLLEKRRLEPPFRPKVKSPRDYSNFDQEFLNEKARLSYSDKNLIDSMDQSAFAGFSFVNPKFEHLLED

## CCCCCCCCCCCCCC(=O)O[C@@H]1[C@@H](C)[C@@]2(O)[C@@H](C=C(CO)C[C@]3(O)C(=O)C(C)=C[C@@H]23)[C@@H]2C(C)(C)[C@]12OC(C)=O [PMA, phorbol-12-myristate-13-acetate]
PMA 50 nM, CHO-k1, 200 cells counted
  cells with translocation of first construct toward the cell membrane: ≥ 90%
PMA 100 nM or higher
  movement of red fluorescence toward the cell membrane: increased
